Measured values taken from US6946297B2, “System for stabilizing samples” (priority 1999, dated 2005).

Experiments:
Assay type in all cases: cell-based
[1] = tested on: Escherichia coli; experiment: Survival of organisms in inoculated urine with preservative components, 24 hours at room temperature; design: key to Survival value esco: 24 h count / control count; 1 = no change, 0.1 = 1-log decrease
Procedure: (§1) Antimicrobial activity for each active ingredient in the Chemistat I formulations was first determined for representative organisms listed in Table I. A culture for each organism of interest on blood agar was incubated at 36° C. overnight. About two to three colonies of the organism were transferred via sterile swab from the blood agar culture into a 5 ml Mueller-Hinton broth culture tube, which was then incubated on a rotator for about two to three hours at 36° C. Using a spectrophotometer set at a wavelength of 630 nm, the turbidity of broth culture was adjusted by the addition of Mueller-Hinton broth to an optical density equivalent to approximately 1×10^8 colony forming units (cfu)/ml to form an inoculum solution. An aliquot of the inoculum solution was plated onto blood agar to determine the actual control organism count. For each component listed in Table II, the component was added to filter-sterilized pooled normal urine at the concentration given in Table II to form a test sample. The test sample was then inoculated with an aliquot of the inoculum solution providing a final organism count of approximately 1×10^6 cfu/ml of test sample. Immediately after thorough mixing, an aliquot of the test sample was removed and serially diluted in PBS, and serial dilutions were plated onto blood agar to determine the Time Zero organism count. The inoculated plates were incubated at 36° C., and organism counts were recorded after 18-24 hours. After incubating the test sample for 24 hours at room temperature, an aliquot of the test sample was again removed, serially diluted in PBS and plated onto blood agar. After incubating for 18-24 hours at 36° C., organism counts were obtained. The organism count obtained after 24 hours incubation at room temperature was divided by the control organism count to provide the survival value of each organism as recorded in Table II. With respect to changes in microbial count, a survival value of 1 represents no change; a survival value of 0.1 indicates a 1-log decrease; a survival value of 10 indicates a 1-log increase; and a survival value of 0.000 represents a decrease of greater than or equal to 3-logs. In comparison, the lower the survival value, the greater the component's capacity for controlling organism growth.

[2] = tested on: Klebsiella pneumoniae; experiment: as above; settings: for Concentration inhibitory against Klebsiella pneumoniae (ineffective up to = >): component alone
Procedure: as §1

[3] = tested on: Proteus vulgaris; experiment: as above; settings: for Concentration inhibitory against Proteus vulgaris (ineffective up to = >): component alone
Procedure: as §1

[4] = tested on: Pseudomonas aeruginosa; experiment: as above; settings: for Concentration inhibitory against Pseudomonas aeruginosa (ineffective up to = >): component alone
Procedure: as §1

[5] = tested on: Enterococcus faecalis; experiment: as above; design: key to Survival value enfa: 24 h count / control count; 1 = no change, 0.1 = 1-log decrease
Procedure: as §1

[6] = tested on: Candida albicans; experiment: as above; design: key to Survival value caal: 24 h count / control count; 1 = no change, 0.1 = 1-log decrease
Procedure: as §1

[7] = tested on: Enterobacter aerogenes; experiment: as above; design: key to Survival value enae: 24 h count / control count; 1 = no change, 0.1 = 1-log decrease
Procedure: as §1

[8] = tested on: microorganisms of interest; experiment: Antimicrobial (cidal) activity against the organisms of interest taken together; settings: component alone
Procedure: as §1, with “With respect to changes in microbial count, a survival value of 1 represents no change; a survival value of 0.1 indicates a 1-log decrease; a survival value of 10 indicates a 1-log increase; and a survival value of 0.000 represents a decrease of greater than or equal to 3-logs. In comparison, the lower the survival value, the greater the component's capacity for controlling organism growth.” left out

CCOC(=O)c1ccc(O)cc1 [Ethyl parahydroxybenzoate, ethyl parahydroxybenzoate]
Concentration with cidal activity against Escherichia coli ([1]; component alone): 1 mg/mL | Survival value esco ([1]; single component at 0.5 mg/ml): tntc | Survival value esco ([1]; single component at 1 mg/ml): 0.000 | Concentration inhibitory against Klebsiella pneumoniae (ineffective up to = >) [2]: > 1 mg/mL | Survival value klpn ([2]; single component at 0.5 mg/ml): tntc | Concentration inhibitory against Proteus vulgaris (ineffective up to = >) [3]: > 1 mg/mL | Survival value prvu ([3]; single component at 0.5 mg/ml): tntc | Concentration inhibitory against Pseudomonas aeruginosa (ineffective up to = >) [4]: > 1 mg/mL | Survival value psae ([4]; single component at 0.5 mg/ml): tntc | Survival value psae ([4]; single component at 1 mg/ml): tntc | Concentration inhibitory against Enterococcus faecalis (ineffective up to = >) ([5]; component alone): > 1 mg/mL | Survival value enfa ([5]; single component at 0.5 mg/ml): tntc | Survival value enfa ([5]; single component at 1 mg/ml): tntc | Concentration inhibitory against Candida albicans (ineffective up to = >) ([6]; component alone): 0.5 mg/mL | Survival value caal ([6]; single component at 0.5 mg/ml): 0.362 | Concentration inhibitory against Enterobacter aerogenes (ineffective up to = >) ([7]; component alone): 1 mg/mL | Survival value enae ([7]; single component at 1 mg/ml): 0.208

CC=Cc1ccc(O)c(OC)c1 [Isoeugenol, isoeugenol]
Concentration with cidal activity against Escherichia coli ([1]; component alone): 1.5 μl/ml | Survival value esco ([1]; single component at 0.2 μl/ml): tntc | Survival value esco ([1]; single component at 0.5 μl/ml): tntc | Survival value esco ([1]; single component at 1.5 μl/ml): 0.000 | Survival value esco ([1]; single component at 2.5 μl/ml): 0.000 | Survival value esco ([1]; single component at 4.6 μl/ml): 0.000 | Survival value klpn ([2]; single component at 0.2 μl/ml): tntc | Survival value prvu ([3]; single component at 0.2 μl/ml): tntc | Survival value psae ([4]; single component at 0.2 μl/ml): tntc | Survival value psae ([4]; single component at 1.5 μl/ml): tntc | Survival value psae ([4]; single component at 2.5 μl/ml): 0.398 | Concentration with cidal activity against Enterococcus faecalis ([5]; component alone): > 4.6 μl/ml | Survival value enfa ([5]; single component at 0.2 μl/ml): tntc | Survival value enfa ([5]; single component at 0.5 μl/ml): tntc | Survival value enfa ([5]; single component at 1.5 μl/ml): tntc | Survival value enfa ([5]; single component at 2.5 μl/ml): 0.750 | Survival value enfa ([5]; single component at 4.6 μl/ml): 0.460 | Concentration with cidal activity against Candida albicans ([6]; component alone): 2.5 μl/ml | Survival value caal ([6]; single component at 0.2 μl/ml): 0.160 | Survival value caal ([6]; single component at 0.5 μl/ml): 2.786 | Survival value caal ([6]; single component at 1.5 μl/ml): 0.152 | Survival value caal ([6]; single component at 2.5 μl/ml): 0.000 | Survival value caal ([6]; single component at 4.6 μl/ml): 0.000 | Concentration with cidal activity against Enterobacter aerogenes ([7]; component alone): 2.5 μl/ml | Survival value enae ([7]; single component at 1.5 μl/ml): tntc | Survival value enae ([7]; single component at 2.5 μl/ml): 0.000 | Concentration required for cidal antimicrobial action for many organisms of interest [8]: greater than 1.5 μg/ml

CCC(=O)[O-].[Na+] [Sodium propionate, sodium propionate]
Concentration inhibitory against Escherichia coli (ineffective up to = >) ([1]; component alone): > 10 mg/mL | Survival value esco ([1]; single component at 5 mg/ml): tntc | Survival value esco ([1]; single component at 10 mg/ml): tntc | Concentration inhibitory against Klebsiella pneumoniae (ineffective up to = >) [2]: > 10 mg/mL | Survival value klpn ([2]; single component at 5 mg/ml): tntc | Concentration inhibitory against Proteus vulgaris (ineffective up to = >) [3]: > 10 mg/mL | Survival value prvu ([3]; single component at 5 mg/ml): tntc | Concentration inhibitory against Pseudomonas aeruginosa (ineffective up to = >) [4]: 10 mg/mL | Survival value psae ([4]; single component at 5 mg/ml): tntc | Survival value psae ([4]; single component at 10 mg/ml): 0.341 | Concentration inhibitory against Enterococcus faecalis (ineffective up to = >) ([5]; component alone): 10 mg/mL | Survival value enfa ([5]; single component at 5 mg/ml): tntc | Survival value enfa ([5]; single component at 10 mg/ml): 2.702 | Concentration inhibitory against Candida albicans (ineffective up to = >) ([6]; component alone): > 10 mg/mL | Survival value caal ([6]; single component at 5 mg/ml): tntc | Concentration inhibitory against Enterobacter aerogenes (ineffective up to = >) ([7]; component alone): > 10 mg/mL
